Results as given in US20040043942A1, “Vitamin preparations for reducing oxygen consumption during physical efforts” (priority 1996, published 2004).
Values joined by “and” are separate entries in the source; they are usually repeats but may differ in a detail not shown here. Identical values can stand only once.

Key:
[1] = tested on: two male individuals, trained for endurance cycling; test: Example 39 a): ergometer test, medicaments and Preparations applied 15 minutes before the test; format: in vivo, human
Procedure: Analogously to Example 37, the following studies a) to c) were carried out on two male individuals, trained for endurance cycling and kept on a permanently carbohydrate-rich diet; individual A (weighing 67 kg) having a maximum oxygen uptake capacity of 3.3 l and an oxygen transport volume per heart beat of 29 ml (corresponding to 0.6 kJ), and individual B (weighing 74 kg) having a maximum oxygen uptake capacity of 4.5 l and an oxygen transport volume per heart beat of 36 ml (corresponding to 0.75 kJ). The following preparations were used, in which the indicated amounts correspond to one dose unit and which were obtained by dissolving or suspending the components in water and gelling the mixture:
H-Gly-Gly-OH was bought from Novabiochem, Läufelfingen, Switzerland. Insulin was injected subcutaneously, while the other medicaments were ingested alone or together with one of Preparations I-IV.
a) In a first study, insulin or antidiabetic sulphonylurea derivatives were applied, alone or in combination with gelatin and/or Preparation I or II, 15 minutes before the tests. In the tests, individual A was subjected to a workload of 100 W (60 r.p.m.) for 15 minutes (tests A1-A8), and individual B was subjected to a workload of 175 W (60 r.p.m.) for 10 minutes (tests B9-B29).

[2] = tested on: muscle glycogen synthesis; test: stimulation of glycogen synthesis and of anaerobic glucose breakdown in the muscle (general statement); format: in vivo; settings: even if taken together with vitamin B1 and vitamin C

For insulin, which “effect on heat production and oxygen consumption induced by constant physical work loads (in words)” value ([1]; applied 15 minutes before the test) is on record?
Its value is “increase the heat production and oxygen consumption”.

What about the Oxygen consumption ([1]; individual B, 175 W for 10 min, 15 min before: 5 I.U. insulin s.c., 2.5 mg glibenclamide alone, with 5 mg gelatin: 100 μg glibenclamide or 10 mg chlorpropamide, Prep. one dose unit) of the same compound?
The Oxygen consumption was 32 liter and 33 liter (2×).

`O=C(CO)[C@@H](O)[C@H](O)[C@H](O)CO` [fructose] was tested. Which “stimulation of glycogen synthesis and of the anaerobic glucose breakdown in the muscle (in words)” value [2] did it give?
Its value is “ineffective”.

How did the “stimulation of glycogen synthesis and of the anaerobic glucose breakdown in the muscle (in words)” value [2] turn out when `OC[C@H]1O[C@@](CO)(O[C@H]2O[C@H](CO)[C@@H](O)[C@H](O)[C@H]2O)[C@@H](O)[C@@H]1O` [sucrose] was run?
Its value is “ineffective”.
